For this test, the target named is Melatonin receptor type 1A (Homo sapiens, UniProt P48039).

A word on the Ki: it is a dissociation constant, usually derived from enzyme kinetics or from competition with a known ligand. Read a high Ki as lower affinity.

Sequence of Melatonin receptor type 1A (P48039 whole entry): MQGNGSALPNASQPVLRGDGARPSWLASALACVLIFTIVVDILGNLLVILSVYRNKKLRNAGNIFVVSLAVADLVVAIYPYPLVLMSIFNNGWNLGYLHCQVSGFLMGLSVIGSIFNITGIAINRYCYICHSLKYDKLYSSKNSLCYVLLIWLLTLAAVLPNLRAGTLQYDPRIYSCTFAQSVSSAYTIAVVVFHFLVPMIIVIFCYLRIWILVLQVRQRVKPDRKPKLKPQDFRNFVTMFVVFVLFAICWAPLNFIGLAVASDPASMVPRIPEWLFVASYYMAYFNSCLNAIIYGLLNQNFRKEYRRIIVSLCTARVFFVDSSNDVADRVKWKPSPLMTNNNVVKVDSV

`COc1ccc2[nH]c(-c3ccccc3)c(CCNC(C)=O)c2c1` [Melatonin,2-Phenyl] gave a Ki of 0.02 nM.

As to `CC(=O)n1cc(CCN)c2cc(O)ccc21` [NSC_260803], the Ki was 484 nM.

The record behind these values is BindingDB's records for doi:10.1038/sj.bjp.0701860 (Universit&Aagrove, 1998).
